Test results taken from PMC8646019, “Azvudine is a thymus-homing anti-SARS-CoV-2 drug effective in treating COVID-19 patients” (Signal Transduction and Targeted Therapy, 2021).

Key:
viral replication = conditions: FNC compound itself, not phosphorylated; cited from earlier work
SARS-CoV-2 = SARS-CoV-2 infected rhesus macaques treated with FNC (viral load, blood tests, histology, X-ray); type: in vivo
Protocol: RM monkeys were used to learn whether FNC could inhibit SARS-CoV-2 in vivo. In this experiment, eight monkeys were first infected with SARS-CoV-2 using the protocol established previously with an infection dose of 10^6 pfu per monkey.[18] Among the eight animals, four were untreated (as vehicle control; two male and two female) and four were treated with FNC (0.07 mg/kg, qd, oral; two male and two female) 12 h post-infection. The treatment continued for 7 days from Day 1 to Day 7. The experiment was terminated on Day 8 after viral infection. Clinical manifestations, blood indications, and viral load in swabs and blood samples was monitored during the course, and organs were examined after euthanasia at 8 dpi. The experimental protocol is shown in Supplementary Fig. 5.
Fig. 3 FNC inhibited SARS-CoV-2 and treated COVID-19 in vivo. Eight RM monkeys were inoculated with SARS-CoV-2, followed by vehicle or FNC treatment 12 h post infection and continued for 7 days (see Materials and methods). […] The regions of interest (ROI) are boxed in white, and their magnified photos are shown below. Scale bars, 500 µm (up) and 20 µm (below). c White blood cells (WBC), neutrophil granulocytes (NG), monocytes (MC), and platelets basically remained stable by FNC after SARS-CoV-2 infection. d FNC increased the percent of lymphocytes, alleviated CRP production, and protected the heart and liver functions. Data are presented as mean ± SEM (n = 4); *p < 0.05, infected monkeys in FNC group vs. infected monkeys in the untreated group, by Mann–Whitney U test. CRP C reaction protein, AST aspartate aminotransferase TEXT PRINTED IN THE PICTURE: (a) FNC: Lung Viral load (copies /g): ND (17031); Lung Viral load (copies /g): ND (17374); Thymus Viral load (copies /g): ND (17017); Thymus Viral load (copies /g): ND (17031); Thymus Viral load (copies /g): ND (17368); Thymus Viral load (copies /g): ND (17374) DOUBTS OF THE COPYIST ABOUT THIS PICTURE: Panel a: the only printed results are "ND" labels over single animal numbers. The red ones (FNC group) are given. The black ND labels of the untreated group (Lung 17032; Thymus 17032, 17041) are left out because no substance was given. / Panel d: 0.083 printed in the CRP and AST plots is taken as a p value and left out.
The rhesus macaques’ experiment was done by following the method described before^1,2. Briefly, healthy rhesus macaques (4 male and 4 female, 3-4 years old) were used for the study. SARS-CoV-2 was from the Center of Diseases Control, Guangdong, China, and amplified in the Vero-E6 cells. Animal groups and experimental schedules were outlined in Fig S4. We inoculated rhesus macaques with 10^6 pfu/ml SARS-CoV-2 intratracheally (0.5ml) and intranasally (0.5ml). FNC (0.07mg/kg, qd, orally) was given 12 h after viral inoculation and continued for 7 days. The animals were monitored daily for physical examination. Chest X-ray radiograph of the anaesthetized monkeys was done with 55-75v and 8-12.5mA with the Mobile digital medical X-ray photography system (MobileCooper, Browiner China).
Quantification of viral genome in swabs and tissue samples was done as described before^1. Viral genome copy in samples were quantified with real time RT-PCR, using TaqMan Fast Virus 1-Step Master Mix (ThermoFisher, US) and conducted on the CFX384 Touch Real-Time PCR Detection System (Biorad, US). Purified RNA of SARS-CoV-2 served as a standard curve. The operation conditions of RT-PCR were set as following: 25℃ for 2min, 50℃ for 15min, 95℃ for 2min, then 40 cycles at 95℃ 5sec and 60℃ 31sec. Primers/probe specific for the NP gene were synthesized based on sequences from China CDC: Target-2-F:GGGGAA […],
By the end of the experiment, major organs of the monkeys were taken and checked with naked eye examination. Tests for blood biochemistry and hematology indexes, including lymphocyte analysis and organ function assays, were done based on previous reports^1,2. […]

[1] = FNC-treated monkeys vs untreated

[N-]=[N+]=N[C@]1(CO)O[C@@H](n2ccc(N)nc2=O)[C@@H](F)[C@@H]1O [FNC, 2′-deoxy-2′-β-fluoro-4′-azidocytidine]
inhibiting viral replication in vitro (viral replication): almost inactive | CK and AST levels (SARS-CoV-2; [1]): decreased CK and AST levels, though insignificantly | body temperature and body weight changes after SARS-CoV-2 infection (SARS-CoV-2; [1]): not different | lesions in the lung (HE staining) (SARS-CoV-2; RM monkeys, FNC 0.07 mg/kg qd oral vs untreated): reduced the lesions substantially | viral load in nasal swabs, blood, lungs and thymus (SARS-CoV-2; RM monkeys, FNC 0.07 mg/kg qd oral, 7 days, vs untreated): significantly reduced viral load | ground-glass opacities in chest X-ray (SARS-CoV-2; RM monkeys, FNC 0.07 mg/kg, qd, orally): lessened ground-glass opacities | viral load in the thymus (SARS-CoV-2; four virus (+) monkeys treated with FNC, termination of the experiment): negative
